# Read-outs that look alike come from different tables or passages of the source.
# How the values were obtained:
# [1] = target: T1, Human transferrin (Homo sapiens, UniProt P02787); assay: Mobilisation of iron from transferrin; assay type: biochemical; conditions: for Percentage of iron removed from transferrin after 6 hours: compound 4×10^-3 M, 59Fe(III) transferrin 10^-5 M, tris HCl 0.1M pH 7.4, 6 hours
# T1 construct: purchased Sigma
# Experimental: Human transferrin (Sigma) was loaded with iron(III) by the method of Bates and Schlaback, J. Biol. Chem. (1973) 248, 3228. ^59 Iron (III) transferrin (10^-5 M) was incubated with a 4×10^-3 M solution in tris HCl (0.1M, pH 7.4) of one of various pyridones as indicated in Table 4 for periods of 6 hours.
# [2] = 100 uM, pH 7.4
# Experimental: (§1) The partition coefficient Kpart, being the ratio (concentration of compound in n-octanol)/(concentraction of compound in aqueous phase) on partition between n-octanol and aqueous tris hydrochloride (20 mM, pH 7.4), is measured by spectrophotometry at 20° C. for various of the compounds of the previous Examples and for their iron(III) complexes (at 10^-4 M). […] Acid washed glassware is used throughout and, following mixing of 5 ml of the 10^-4 M aqueous solution with 5 ml n-octanol for 1 minute, the aqueous n-octanol mixture is centrifuged at 1,000 g for 30 seconds. The two resulting phases are separated for a concentration determination by spectrophotometry on each. For the metal-free linked hydroxypyridone compounds, the range 220-340 nm is used for concentration determinations whilst for the iron complexes, the range 340-640 nm is used.
# [3] = Partition coefficient Kpart between n-octanol and aqueous tris hydrochloride; conditions: n-octanol/tris hcl, pH 7.4
# Experimental: as §1
# [4] = Affinity for iron(III) expressed as log Ksol; assay type: physicochemical
# Text: In order to solubilise iron(III) hydroxide, log Ksol must be greater than 0 and in order to remove iron from transferrin, log Ksol should be in excess of 6.0. The log Ksol values for the single ring compounds 3-hydroxyl-1-methylpyrid-2-one and 1,2-dimethyl-3-hydroxypyrid-4-one, by way of example, are 10.0 and 9.5, respectively, thus comparing favourably with those of the bidentate hydroxamates at about 4.0, of catechols at about 8.0, of desferrioxamine at 6.0, and of diethylenetriamine penta-acetic acid (DTPA) at 2.0.
# [5] = target: T2, Horse spleen ferritin (Equus caballus, UniProt P02791); conditions: similar test, cited from earlier work
# T2 construct: purchased Sigma; host or cells: horse spleen
# T2 sequence (P02791 2-175 limits assumed): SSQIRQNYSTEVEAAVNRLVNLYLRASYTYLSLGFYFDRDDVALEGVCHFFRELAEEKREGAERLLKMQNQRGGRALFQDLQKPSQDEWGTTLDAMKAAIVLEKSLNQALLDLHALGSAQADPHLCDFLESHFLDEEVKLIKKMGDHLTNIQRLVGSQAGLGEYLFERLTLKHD
# [6] = tested on: human erythrocytes; assay: Permeation of 59Fe labelled iron complexes into human erythrocytes; assay type: cell-based; conditions: 59Fe complex 10^-3 M, 5% erythrocyte suspension, 1 hour, 37° C., pH 7.4; mean of at least three determinations
# Experimental: The accumulation of iron by human erythrocytes which are associated with the iron complexes of three compounds described in earlier Examples was studied by incubating for 1 hour at 37° C. a 5% suspension of erythrocytes in a medium consisting of the ^59 Fe labelled iron complex^(1) (10^-3 M) in aqueous sodium chloride (130 mM) buffered to pH 7.4 by tris hydrochloride (2 ml). Following this period of incubation, an aliquot of the erythrocyte/medium mixture was placed above a layer of silicone oil and the erythrocytes separated by centrifugation through the oil. The ^59 Fe levels associated with the erythrocytes and the incubation medium were then counted. By way of comparison, a similar experiment was concluded with ferric citrate.
# [7] = target: T2, Horse spleen ferritin; assay: Mobilisation of iron from ferritin; assay type: biochemical; conditions: 25° C., pH 7.4
# Experimental: Horse spleen ferritin (Sigma) was used without further purification and its iron content was estimated spectrophotometrically at 420 nm. The ferritin solution in phosphate buffered saline (Dulbecco-OXOID, 10^-6 M, pH 7.4) was incubated at 25° C. with the compound at 10^-4 M for 6 and 24 hours. Apoferritin (in admixture with ferritin) and the particular linked hydroxypyridone Fe^(III) complex were separated by chromatography on Sephadex G10. The absorption spectra of the high and low molecular weight fractions were recorded and the percentage of iron removed from the ferritin was calculated and is reported in Table 3. For comparative purposes, the procedure was repeated using a blank control, and also with the single ring, bidentate compound 1-ethyl-3-hydroxypyrid-4-one (at 10^-3 M). In addition, results reported in the literature for similar tests with 1×10^-3 M desferrioxamine (Crichton et al, J. Inorganic Biochem., 1980, 13, 305) and with 6×10^-3 M LICAMS (Tufano et al, Biochem. Biophys. Acta, 1981, 668, 420 ) are also given in the Table.
# [8] = tested on: inverted rat jejunal sac; assay: Permeation of inverted rat jejunal sac by iron complexes; assay type: in vitro ADME; conditions: relative to ferric chloride as 1; 59Fe complexes, 37° C., up to 1 hour
# Text: Rats (male Sprague Dawley, 60 g) were killed and the jejunum removed, everted and cut into three segments (4 cm length). […] The contents of the sac were counted for ^59 Fe and measured spectrophotometrically.
# T1 sequence (P02787 20-698): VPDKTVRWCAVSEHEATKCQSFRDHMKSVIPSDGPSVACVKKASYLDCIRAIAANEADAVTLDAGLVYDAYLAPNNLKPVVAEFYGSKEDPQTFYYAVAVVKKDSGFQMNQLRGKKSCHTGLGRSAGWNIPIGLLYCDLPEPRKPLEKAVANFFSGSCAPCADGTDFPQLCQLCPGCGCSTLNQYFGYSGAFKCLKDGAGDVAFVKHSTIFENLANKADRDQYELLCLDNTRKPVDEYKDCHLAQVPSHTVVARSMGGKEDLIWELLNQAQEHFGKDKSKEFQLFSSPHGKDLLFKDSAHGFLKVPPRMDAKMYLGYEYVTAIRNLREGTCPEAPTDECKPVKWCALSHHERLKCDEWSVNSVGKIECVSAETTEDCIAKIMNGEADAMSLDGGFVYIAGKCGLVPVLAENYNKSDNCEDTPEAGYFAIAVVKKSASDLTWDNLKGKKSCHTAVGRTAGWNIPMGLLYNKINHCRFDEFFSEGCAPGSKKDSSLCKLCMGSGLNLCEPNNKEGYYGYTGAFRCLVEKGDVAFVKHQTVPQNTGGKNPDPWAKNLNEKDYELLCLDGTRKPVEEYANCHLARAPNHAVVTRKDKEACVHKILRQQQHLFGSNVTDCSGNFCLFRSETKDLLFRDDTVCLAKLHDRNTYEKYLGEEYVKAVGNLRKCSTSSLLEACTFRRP
compound,measurement,setting,value
O=C(Cn1cccc(O)c1=O)NCCCCCCCCNC(=O)Cn1cccc(O)c1=O [Compound 5],Percentage of iron removed from transferrin after 6 hours,[1],32%
same,"Partition coefficient Kpart, iron complex [Fe^III -(compound)3 ]",[2],0.10
same,logD at 100 µM,[3],-1.77
"CC(=O)N(O)CCCCCNC(=O)CCC(=O)N(O)CCCCCNC(=O)CCC(=O)N(O)CCCCCN [Desferrioxamine, desferrioxamine]",Percentage of iron removed from transferrin after 6 hours,[1],17%
same,log Ksol,[4],6.0
same,"Percentage of iron removed from ferritin, 6 hours","[5]; 10^-3 M, literature value (Crichton et al 1980)",1.2%
ferric citrate [Fe^III citrate],Amount of complex entering erythrocytes,[6],< 5 n.mole
O=C(Cn1cccc(O)c1=O)NCCN(CCNC(=O)Cn1cccc(O)c1=O)CCNC(=O)Cn1cccc(O)c1=O [Compound 8],"Percentage of iron removed from ferritin, 6 hours",[7]; compound 10^-4 M,3%
same,"Percentage of iron removed from ferritin, 24 hours",[7]; compound 10^-4 M,10%
same,Percentage of iron removed from transferrin after 6 hours,[1],40%
same,"Removal of iron from transferrin, comparison in words",[1]; versus desferrioxamine and EDTA,markedly better results than desferrioxamine or EDTA
same,"Partition coefficient Kpart, iron complex [Fe^III -(compound)3 ]",[2],0.03
same,logD at 100 µM,[3],-1.7
"O=C(O)CN(CCN(CC(=O)O)CC(=O)O)CC(=O)O [EDTA, ethylenediamine tetra-acetic acid, reference compound]",Percentage of iron removed from transferrin after 6 hours,[1],27%
"O=C(Cn1cccc(O)c1=O)NCCCCCCNC(=O)Cn1cccc(O)c1=O [Compound 4, 1,6-di-(3-hydroxy-2-oxopyrid-1-ylacetamido)-hexane]","Percentage of iron removed from ferritin, 6 hours",[7]; compound 10^-4 M,< 1%
same,"Percentage of iron removed from ferritin, 24 hours",[7]; compound 10^-4 M,3%
"Cc1c(O)c(=O)ccn1C [1,2-dimethyl-3-hydroxypyrid-4-one]",log Ksol,[4],9.5
"[Cl][Fe]([Cl])[Cl] [FeCl3, ferric chloride]",Relative iron uptake into serosal space of jejunal sac,[8],1
"O=C(Cn1cccc(O)c1=O)NCCCN(CCCNC(=O)Cn1cccc(O)c1=O)C(=O)Cn1cccc(O)c1=O [Compound 10, N-(3-hydroxy-2-oxopyrid-1-ylacetyl)-N-[3-(3-hydroxy-2-oxopyrid-1-ylacetamido)-propyl]-3-(3-hydroxy-2-oxopyrid-1-ylacetamido)-propylamine]","Partition coefficient Kpart, iron complex [Fe^III -(compound)3 ]",[2],0.3
same,logD at 100 µM,[3],-0.699
Cn1cccc(O)c1=O [3-hydroxyl-1-methylpyrid-2-one],log Ksol,[4],10.0
"CCn1ccc(=O)c(O)c1 [1-ethyl-3-hydroxypyrid-4-one, reference compound]","Percentage of iron removed from ferritin, 6 hours",[7]; compound 10^-3 M,25%
same,"Percentage of iron removed from ferritin, 24 hours",[7]; compound 10^-3 M,44%
O=C(NCCCCN(CCCNC(=O)c1cc(S(=O)(=O)O)cc(O)c1O)C(=O)c1cc(S(=O)(=O)O)cc(O)c1O)c1cc(S(=O)(=O)O)cc(O)c1O [LICAMS],"Percentage of iron removed from ferritin, 6 hours","[5]; 6 × 10^-3 M, literature value (Tufano et al 1981)",0%
"O=C(O)CN(CCN(CC(=O)O)CC(=O)O)CCN(CC(=O)O)CC(=O)O [DTPA, diethylenetriamine penta-acetic acid]",log Ksol,[4],2.0

# Reference: patent US5104865A, “Iron complexes of hydroxypyridones useful for treating iron overload” (National Research Development Corporation, priority 1983, dated 1992)
